We go through one molecule from the NIST ThermoML archive (doi:10.1016/j.jct.2016.04.018).

The conditions of this data set: 298.15 K; 101.3 kPa; Crystal; flotation method.

For orientation: mass density means the mass of a sample divided by its volume.

± gives the expanded uncertainty stated by the source.

With `O=[N+]([O-])c1ccc(O)c2ncccc12` [5-nitro-8-quinolinol], the mass density came to 1489.7 ± 2.5 kg/m3.
